The values below come from patent US10390553B2, “Food containing histidine and use thereof” (AJINOMOTO CO., INC., priority 2013, dated 2019).

Data set [1] relates to clock genes (Bmal1, Dbp, Per1, Per2, Reverb-alpha). The experiment in a line: Oscillation of expression of clock genes of the auricle in aged mice. The conditions noted are these: aged mice 22 to 24 months, 1.2 w/v % L-histidine solution for 9 days. The data set is classed as in vivo, mouse. The procedure:
Aged mice of 22 to 24 months of age being reared under generally light and dark environment were divided into two groups, and the effect of the ingestion of histidine drinking solution was studied. The histidine ingestion period was set to 9 days, during which period aqueous L-histidine solution (corresponding to L-histidine 1.2 w/v %) was given for ingestion by mounting a water inlet on a 50 mL centrifuge tube, whereby about 1.2 g/kg body weight of histidine was ingested per day. In the histidine ingestion group of aged mice, samples were taken from the auricle by changing the position over time on 8 to 9 days from the start of the ingestion of the aqueous histidine solution, and 5 kinds of clock genes (Bmal1, Dbp, Per1, Per2, Reverb-alpha) of the peripheral tissue were analyzed as an index of biorhythm. In the simultaneous stage, the clock genes of the auricle of the aged mice and young mice (4 months old) that ingested tap water were analyzed as comparison targets. […] To be specific, gene expression of the clock gene was quantified at each time point, and the amplitudes and phase of the oscillation of expression of the clock gene of each individual were determined by approximation on the cosine curve. […]

The test system of data set [2] is mouse reared under 24 hr dark conditions. The experiment in a line: Biorhythm phase regulating action, locomotor behavioral pattern in free run cycle under 24 hr dark conditions. It is filed as in vivo. The following applies: for phase shift of the behavior start time (circadian rhythm): feed with 45 mg L-histidine per 1 g, 4 hours per day for 4 days. The procedure: A phase regulating action of histidine on a mouse reared under 24 hr dark conditions was evaluated. When a mouse is reared under 24 hr dark conditions, the mouse starts to act in a cycle specific to the biological clock (also referred to as free run, meaning freed from synchrony), since the outside information (light-dark cycle of light) cannot be obtained. When the free run cycle is converted to 24 hr and indicated as circadian time on the horizontal axis, 12 hours of the former half thereof is called a subjective light period (time zone judged to be daytime by biological clock: CT0-12), and the latter half is called a subjective dark period (time zone judged to be night by biological clock: CT12-24). Under such conditions, locomotor activity of mice (behavioral pattern in free run cycle) was measured using an emission infrared detector type locomotor activities sensor (Digital acquisition system; NS-AS01, Neuroscience Inc, Tokyo, Japan). Furthermore, a feed added with 45 mg of L-histidine per 1 g of a general feed was prepared, and used to replace the general feed for only 4 hours in one day to allow for ingestion. The time zone for ingestion was CT2-6 (subjective light period) or CT14-18 (subjective dark period). Such replacement of the feed was performed for 4 days, and change of phase of the behavioral pattern was judged.

Data set [3] concerns CD2F1 mice after burden of insufficient sleep. The experiment in a line: Locomotor activities under novel environment after burden of insufficient sleep, single histidine administration. The data set is classed as in vivo, mouse. The following applies: single oral dose 1.2 g/kg body weight at ZT14; measured for 3 hr from ZT15; SD+His vs SD+solvent. The text has this:
Using CD2F1 mice (9-10-week-old) and as shown in the experiment protocol of FIG. 2A, a burden of insufficient sleep is applied to sleep disorder group (SD) for one day. The burden was released at ZT6, and the mice were placed back in the home cage and allowed to rest for 6 hr. The control group (CON) was reared without burden in the home cage. A 1.2 w/v % L-histidine solution was orally administered to a histidine administration group (SD+His) at 2 hr after the start of the dark phase after burden of insufficient sleep (ZT14), to achieve an L-histidine dose of 1.2 g/kg body weight. A solvent (water) was orally administered to the solvent administration group (SD+solvent) and the control group (CON). The locomotor activities under novel environment were measured for 3 hr from 3 hr after the start of the dark phase (ZT15).

For data set [4], the system named is males feeling decrease in the quality of sleep and fatigue. As to the kind of experiment: Safety of histidine ingestion: general properties, hematology, blood biochemistry. The data set is classed as in vivo, human. The conditions noted are these: 2 weeks continuous and single, 1.65 g. The source says: Twenty males of 45 years old to less than 65 years old, who received total evaluation of not less than 17 points in the “self-diagnosis fatigue questionnaire” (Fatigue Science Laboratory Inc.) performed in advance, felt decrease in the quality of sleep (generally PSQI≥6), and obtained fatigue factor T scores of not less than 60 points in POMS, were selected, and randomly divided into 2 groups (10 per group). A crossover test, including ingesting histidine and control food (equal volume of cellulose) each for 14 days, was performed in each group.
As shown in the experiment protocol of FIG. 4A, the test subjects ingested capsules containing 1.65 g of L-histidine as a daily ingestion amount (5 capsules (hard capsule #2 WHITE OP B/C) containing 0.33 g of L-histidine alone), or control sample capsules (5 capsules containing equal volume of cellulose) for 14 days. After the completion of 14 day ingestion, a 14 day resting period was taken. After the resting period, they ingested the capsules not ingested before the resting period. […]

Consider `N[C@@H](Cc1c[nH]cn1)C(=O)O` [histidine, L-histidine], for which the “phase of the oscillation of expression of the clock gene” value in data set [1] (about 1.2 g/kg body weight per day, vs aged mice on tap water) was “suppressed phase advancement”. Further, the “average phase of measured 5 clock genes compared to young mice” value in data set [1] (compared to young mice (4 months old)) is listed as “reached the same level as in young mice”. The “phase shift of the behavior start time (circadian rhythm)” value in data set [2] (ingestion in CT2-6 (subjective light period)) was “significantly advances”; in data set [2] (ingestion in CT14-18 (subjective dark period)), “tended to advance”. Also, the “shortening of the cycle of activity rhythm, mean” value in data set [2] (ingestion of histidine in CT2-6, n=4) came to 0.34 ± 0.08 h. In addition, in data set [3], the “locomotor activities under novel environment” value was “tendency of suppression of a decrease in the locomotor activities”. Besides, the “variation in general properties, hematology, and blood biochemistry” value in data set [4] is “did not show problematic variation”.
